Source: article PMC10245146, “CNS4 causes subtype‐specific changes in agonist efficacy and reversal potential of permeant cations in NMDA receptors” (Pharmacology Research & Perspectives, 2023)
Several values for one entry are separate records, joined by “and”; a condition that tells them apart may be missing. Equal values may be shown once.

Tests used:
[1] = biological target: T1, GluN1/2D NMDA receptors (UniProt O15399+P35439); experiment: TEVC antagonist block of agonist-induced currents, 1/2D; assay type: cell-based; conditions: 100 μM glutamate and glycine
T1 construct: host or cells: Xenopus oocytes (cRNA injection)
Protocol: (§1) Electrophysiological responses were measured using a standard two‐microelectrode voltage‐clamp workstation (Warner Instruments model OC‐725C) designed to provide a fast clamp of large cells. The recording buffer contained 116 mM NaCl, 2 mM KCl, 0.3 mM BaCl2, and 5 mM HEPES, pH 7.4. Response magnitude was determined in Xenopus oocytes expressing different NMDA receptor subunits (GluN1/2A, 1/2B, 1/2C, 1/2D, and 1/2A/2B) by the steady plateau response elicited by bath application of different agonist concentrations. […] All data points were obtained from the steady state currents unless stated otherwise. Dose–response relationships were fit to an appropriate curve‐fitting equation using GraphPad Prism‐7. Non‐linear regression was used to calculate EC50, IC50, and fold change or percentage maximal response. Curves were fit using the following equations as performed in the previous studies, [37]: Y=100/1+10^LogEC50−XorY=Bottom+Top−Bottom/1+10^LogEC50−X . Statistical significance was determined at the overall alpha level 0.05, using appropriate statistical methods as described in all figure captions. Technical and biological replicates are explicitly mentioned in each figure legend, as n = X (Y). X represents technical repeats (number of traces) and Y represents biological repeats (number of oocytes or HEK293T cells studied). […] For the data sets with nonparametric distribution, Wilcoxon signed rank test is a nonparametric test was used (Figure 1). Paired or unpaired t‐tests were for used only compare the datasets obtained with and without CNS4 dose response curves.
(§2) If CNS4 directly competes with GluN1 or GluN2 competitive antagonists or indirectly influences the activity, there should be a change in DCKA and/ or DL‐AP5 activity in blocking agonist‐induced currents.
FIGURE 4 Effect of CNS4 on competitive and uncompetitive NMDA receptor antagonists. […] A similar experiment was performed with 100 μM DL‐AP5. […] Paired student‐t test was performed to calculate the statistical significance. […]

[2] = biological target: T2, GluN1/2A NMDA receptors (UniProt P35439+Q12879); experiment: TEVC antagonist block of agonist-induced currents, 1/2A; assay type: cell-based; conditions: 100 μM glutamate and glycine, n = 7 (7)
T2 construct: expressed in transfected cells; host or cells: Xenopus oocytes (cRNA injection)
Protocol: as §1, §2
FIGURE 4 Effect of CNS4 on competitive and uncompetitive NMDA receptor antagonists. […] A similar experiment was performed with 100 μM DL‐AP5. […] Paired student‐t test was performed to calculate the statistical significance. […] Unpaired student‐t test was performed to calculate the statistical significance. *p < .05; NS, not significant.

[3] = biological target: 1/2A NMDA receptor; conditions: read-out: Glutamate potency EC50; cited from earlier work
[4] = biological target: 1/2D NMDA receptor; conditions: read-out: Glutamate potency EC50; cited from earlier work
[5] = system: GluN1/2A/2B triheteromeric (1/2AB) NMDA receptors; experiment: TEVC agonist dose-response, Xenopus oocytes expressing 1/2AB; assay type: cell-based; conditions: without CNS4; 100 μM glutamate constant; relative to 1 μM glycine
From the text: NMDA receptor constructs: cDNA encoding the NMDA receptor1a subunit (GluN1a) was obtained from Dr. Nakanishi (Kyoto, Japan). cDNA encoding the GluN2B (pci_sepGluN2B), originally developed in the Malinow lab,[33] was purchased from Addgene (cat# 23998), Cambridge, MA. cDNA encoding the GluN2C and GluN2D were purchased from GenScript, New Jersey, USA. Mutated GluN1, 2A and 2B cDNA constructs capable of assembling as GluN1/2A/2B triheteromeric (1/2AB) receptors[34] were obtained from Dr. Paoletti (Laboratoire de Neurobiologie, CNRS). These constructs have been previously tested for 1/2AB receptor activity of GluN1/2A receptor‐selective potentiators.[35] […] Plasmids were linearized with NotI (GluN1a and all five GluN1 mutants) or Avrll (GluN2B), or BstB1 (GluN2C and GluN2D) and transcribed in vitro with T7 (GluN1a, GluN1/2A, GluN2B, GluN2C & GluN2D), and SP6 (GluN1 mutants) RNA polymerase using the mMessage mMachine transcription kits (Invitrogen by Thermo Fisher Scientific).
Stage IV frog oocytes were obtained from Xenopus‐I, (Ann Arbor, MI, USA). NMDA receptor subunit cRNAs were suspended in nuclease free sterile water. GluN1A, GluN2B, GluN2C, GluN2D and GluN1/2A/2B cRNAs were mixed in a ratio of 1:1–3. 50 nL of the final cRNA mixture was microinjected (40–70 ng total) into the oocyte cytoplasm. Oocytes were incubated in ND‐96 solution at 18°C prior to electrophysiological recordings (2–5 days).
Electrophysiological responses were measured using a standard two‐microelectrode voltage‐clamp workstation (Warner Instruments model OC‐725C) designed to provide a fast clamp of large cells. The recording buffer contained 116 mM NaCl, 2 mM KCl, 0.3 mM BaCl2, and 5 mM HEPES, pH 7.4. Response magnitude was determined in Xenopus oocytes expressing different NMDA receptor subunits (GluN1/2A, 1/2B, 1/2C, 1/2D, and 1/2A/2B) by the steady plateau response elicited by bath application of different agonist concentrations. […] All data points were obtained from the steady state currents unless stated otherwise. Dose–response relationships were fit to an appropriate curve‐fitting equation using GraphPad Prism‐7. Non‐linear regression was used to calculate EC50, IC50, and fold change or percentage maximal response. Curves were fit using the following equations as performed in the previous studies, [37]: Y=100/1+10^LogEC50−XorY=Bottom+Top−Bottom/1+10^LogEC50−X . Statistical significance was determined at the overall alpha level 0.05, using appropriate statistical methods as described in all figure captions. Technical and biological replicates are explicitly mentioned in each figure legend, as n = X (Y). X represents technical repeats (number of traces) and Y represents biological repeats (number of oocytes or HEK293T cells studied). […]

[6] = 100 μM antagonist plus 100 μM CNS4

T2 sequence (Q12879 23-1464, other chains not shown): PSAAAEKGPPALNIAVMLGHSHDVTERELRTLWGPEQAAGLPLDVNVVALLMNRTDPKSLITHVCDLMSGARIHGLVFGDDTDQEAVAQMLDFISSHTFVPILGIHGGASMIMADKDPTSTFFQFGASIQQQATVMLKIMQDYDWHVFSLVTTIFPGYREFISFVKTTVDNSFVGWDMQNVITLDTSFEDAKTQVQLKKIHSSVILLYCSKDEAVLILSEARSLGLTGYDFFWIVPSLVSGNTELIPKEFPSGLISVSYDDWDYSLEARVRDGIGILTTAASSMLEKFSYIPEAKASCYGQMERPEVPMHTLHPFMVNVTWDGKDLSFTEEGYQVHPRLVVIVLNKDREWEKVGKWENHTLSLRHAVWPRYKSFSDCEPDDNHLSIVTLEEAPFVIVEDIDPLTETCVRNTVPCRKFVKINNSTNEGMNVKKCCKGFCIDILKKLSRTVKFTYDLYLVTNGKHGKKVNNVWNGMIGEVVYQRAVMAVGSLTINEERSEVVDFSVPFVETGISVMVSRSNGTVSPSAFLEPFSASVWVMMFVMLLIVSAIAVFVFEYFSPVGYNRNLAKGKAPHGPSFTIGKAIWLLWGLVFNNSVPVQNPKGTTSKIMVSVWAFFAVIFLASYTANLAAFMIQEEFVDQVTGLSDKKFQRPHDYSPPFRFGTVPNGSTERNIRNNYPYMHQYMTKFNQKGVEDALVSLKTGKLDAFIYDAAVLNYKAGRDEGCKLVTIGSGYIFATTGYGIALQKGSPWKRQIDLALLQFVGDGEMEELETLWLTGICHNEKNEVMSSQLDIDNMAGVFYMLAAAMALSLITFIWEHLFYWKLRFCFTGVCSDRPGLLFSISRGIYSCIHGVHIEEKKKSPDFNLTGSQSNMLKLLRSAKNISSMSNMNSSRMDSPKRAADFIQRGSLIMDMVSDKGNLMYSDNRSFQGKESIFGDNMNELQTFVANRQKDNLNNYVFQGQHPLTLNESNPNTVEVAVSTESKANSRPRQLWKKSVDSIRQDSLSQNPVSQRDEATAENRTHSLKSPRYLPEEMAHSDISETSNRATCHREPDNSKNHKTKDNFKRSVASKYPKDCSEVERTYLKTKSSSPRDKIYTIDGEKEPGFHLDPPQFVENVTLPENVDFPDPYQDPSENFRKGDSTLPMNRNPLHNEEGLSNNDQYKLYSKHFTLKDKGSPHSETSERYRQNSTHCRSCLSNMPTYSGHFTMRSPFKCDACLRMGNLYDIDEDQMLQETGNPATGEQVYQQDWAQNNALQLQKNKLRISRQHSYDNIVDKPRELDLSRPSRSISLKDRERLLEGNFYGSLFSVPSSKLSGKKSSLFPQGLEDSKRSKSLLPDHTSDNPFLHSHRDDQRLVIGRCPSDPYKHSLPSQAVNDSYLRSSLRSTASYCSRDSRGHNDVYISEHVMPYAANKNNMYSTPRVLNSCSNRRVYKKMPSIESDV
T1 sequence (O15399 28-1336, other chains not shown): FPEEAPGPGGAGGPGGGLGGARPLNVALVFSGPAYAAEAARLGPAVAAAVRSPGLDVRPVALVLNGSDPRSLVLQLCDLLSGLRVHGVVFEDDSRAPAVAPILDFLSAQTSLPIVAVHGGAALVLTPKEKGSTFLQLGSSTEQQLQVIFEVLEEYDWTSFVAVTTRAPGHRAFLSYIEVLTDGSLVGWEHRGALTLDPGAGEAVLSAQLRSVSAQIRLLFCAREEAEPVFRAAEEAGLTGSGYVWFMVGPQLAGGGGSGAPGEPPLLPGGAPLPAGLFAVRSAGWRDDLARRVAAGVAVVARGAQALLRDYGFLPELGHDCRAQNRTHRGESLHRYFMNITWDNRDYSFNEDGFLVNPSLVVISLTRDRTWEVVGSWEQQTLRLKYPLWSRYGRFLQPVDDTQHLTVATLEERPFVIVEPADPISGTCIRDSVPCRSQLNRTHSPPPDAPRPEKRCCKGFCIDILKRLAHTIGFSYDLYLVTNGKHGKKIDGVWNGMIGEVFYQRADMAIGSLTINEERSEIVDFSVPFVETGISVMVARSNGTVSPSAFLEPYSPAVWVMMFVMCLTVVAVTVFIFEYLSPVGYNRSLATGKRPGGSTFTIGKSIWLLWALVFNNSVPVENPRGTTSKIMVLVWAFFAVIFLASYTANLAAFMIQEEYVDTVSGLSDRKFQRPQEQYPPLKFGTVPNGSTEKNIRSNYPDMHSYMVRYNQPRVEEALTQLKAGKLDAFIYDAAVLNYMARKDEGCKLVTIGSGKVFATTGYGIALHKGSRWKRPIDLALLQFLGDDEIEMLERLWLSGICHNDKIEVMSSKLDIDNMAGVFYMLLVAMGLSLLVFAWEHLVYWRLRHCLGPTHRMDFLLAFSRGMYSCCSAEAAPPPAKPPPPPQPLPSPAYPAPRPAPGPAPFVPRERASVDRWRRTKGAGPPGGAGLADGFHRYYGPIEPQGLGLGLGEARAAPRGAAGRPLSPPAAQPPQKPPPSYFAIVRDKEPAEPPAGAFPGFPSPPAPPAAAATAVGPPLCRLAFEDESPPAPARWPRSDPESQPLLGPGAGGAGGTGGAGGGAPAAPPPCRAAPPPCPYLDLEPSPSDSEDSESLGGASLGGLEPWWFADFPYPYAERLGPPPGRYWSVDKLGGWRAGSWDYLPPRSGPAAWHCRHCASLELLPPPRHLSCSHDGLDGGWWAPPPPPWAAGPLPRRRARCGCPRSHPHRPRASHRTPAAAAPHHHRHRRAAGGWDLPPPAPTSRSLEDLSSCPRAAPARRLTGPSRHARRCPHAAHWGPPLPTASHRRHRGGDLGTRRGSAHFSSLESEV

Row | SMILES | Block of agonist-induced currents [1, 6] | Block of agonist-induced currents ([2]; 100 μM antagonist alone) | Block of agonist-induced currents [2, 6] | Block of agonist-induced currents ([1]; 100 μM antagonist alone) | EC50 [3] | EC50 [4] | Glycine efficacy: relative fold change in current at highest glycine concentration [5]
1 | O=C(O)c1cc(=O)c2c(Cl)cc(Cl)cc2[nH]1 [DCKA] | 62.09 ± 2.27% | 97.85 ± 0.66% | 98.98 ± 0.21% |  |  |  | 
2 | NC(CCCP(=O)(O)O)C(=O)O (stereo not drawn) [DL‐AP5] | 5.96 ± 10.59% | 39.53 ± 1.22% and ~ 39% | 38.10 ± 1.28% | 18.28 ± 10.47% and ~ 18% |  |  | 
3 | N[C@@H](CCC(=O)O)C(=O)O [glutamate, L‐glutamate] |  |  |  |  | ~3000 nM | ~500 nM | 
4 | NCC(=O)O [glycine, reference compound] |  |  |  |  |  |  | 2.37 ± 0.23 fold
